Source: article PMC12696353, “Structural insights into endogenous agonist selectivity of aminergic receptors from the octopamine β2 receptor” (PNAS Nexus, 2025)
Substitutions are numbered along the chain they refer to. “Also recorded” adds a separate entry of the source. Like-named read-outs stand apart in the source and are kept apart here.

How the values were obtained:
[1] = molecular target: I. scapularis octβ2R (is-octβ2R) (Ixodes scapularis, UniProt A0ACM8E5E8); test: cell-based; format: cell-based; conditions: for potency (EC50) relative to the other TDAs: order octopamine > tyramine > noradrenaline > dopamine
Description: (§1) The TGFα shedding assay was performed as previously described ([28]). […] The cells were transfected using lipofectamine 2000 with plasmids encoding alkaline phosphatase–tagged TGFα (AP-TGFα) (2.5 ng/mL), is-octβ2Rs (1 ng/mL), and Gαq/s (0.5 ng/mL). After 24 h, the cells were washed with phosphate-buffered saline and resuspended in Hank's balanced salt solution (HBSS) (supplemented with 5 mM HEPES [pH 7.4]). The cells (90 μL/well) were plated in a 96-well plate and incubated with 10 μL of HBSS solution containing various concentrations of compounds for 1 h at 37 °C. Following centrifugation (200 × g, 2 min), 80 μL of the supernatant was transferred to a separate 96-well plate. Subsequently, 80 µL of 2× para-nitrophenyl phosphate (pNPP) buffer (containing 10 mM pNPP in 40 mM Tris–HCl [pH 9.5], 40 mM NaCl, and 10 mM MgCl2) was added to both the supernatant and cell-containing plates. The optical density at 405 nm of both plates was measured before and after a 1 h incubation at room temperature using a microplate reader (SpectraMax iD3, Molecular Devices, San Jose, CA, United States). AP-TGFα release was calculated using the following formulas:
(§2) ΔOD405=OD450(1h)−OD405(0h)AP−TGFαinsupernatant(%)=(ΔOD405Sup/[ΔOD450Sup+ΔOD405Cell])×125AP−TGFαrelease(%)=AP−TGFαinsupernatantunderastimulatedcondition(%)−AP−TGFαinsupernatantunderavehicle−treatedcondition
(§3) where OD405 (0 h) and […] represent the OD405 before and after a 1 h incubation, respectively, and OD405Sup and OD405Cell represent the OD405 of supernatant and cell plates, respectively. For all pharmacological analyses, nonlinear regression curve fitting was performed with a 3-parameter sigmoid model (Hill coefficient = 1) using Prism 8 (GraphPad Software, La Jolla, CA, United States).

[2] = molecular target: T1, is-octβ2R T60^1.41P mutant (Ixodes scapularis, UniProt A0ACM8E5E8); test: TGFα shedding assay, amitraz-resistant mutant T60^1.41P; format: cell-based; conditions: Table S4
T1 sequence (A0ACM8E5E8 1-384 T39P): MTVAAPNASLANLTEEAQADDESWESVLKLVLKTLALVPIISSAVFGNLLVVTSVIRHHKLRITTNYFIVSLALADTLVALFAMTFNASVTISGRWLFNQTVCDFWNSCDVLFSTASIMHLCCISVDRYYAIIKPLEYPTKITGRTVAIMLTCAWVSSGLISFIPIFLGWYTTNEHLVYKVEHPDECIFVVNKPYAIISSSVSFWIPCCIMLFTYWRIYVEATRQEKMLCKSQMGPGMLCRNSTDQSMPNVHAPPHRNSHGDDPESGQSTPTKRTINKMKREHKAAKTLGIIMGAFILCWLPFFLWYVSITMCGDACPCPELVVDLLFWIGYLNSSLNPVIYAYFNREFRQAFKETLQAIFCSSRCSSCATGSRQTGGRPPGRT
Description: as §1, §2, §3

[3] = molecular target: T2, is-octβ2R I61^1.42F mutant (Ixodes scapularis, UniProt A0ACM8E5E8, I40F); test: TGFα shedding assay, amitraz-resistant mutant I61^1.42F; format: cell-based; conditions: Table S4
T2 sequence (A0ACM8E5E8 1-384 I40F): T1 sequence (A0ACM8E5E8 1-384 T39P) with P39T, I40F
Description: as §1, §2, §3

[4] = molecular target: T3, is-octβ2R I62^1.43T mutant (Ixodes scapularis, UniProt A0ACM8E5E8, I41T); test: TGFα shedding assay, amitraz-resistant mutant I62^1.43T; format: cell-based; conditions: Table S4
T3 sequence (A0ACM8E5E8 1-384 I41T): T1 sequence (A0ACM8E5E8 1-384 T39P) with P39T, I41T
Description: as §1, §2, §3

[5] = molecular target: T4, is-octβ2R Y67^2.41S mutant (Ixodes scapularis, UniProt A0ACM8E5E8, Y67S); test: TGFα shedding assay, amitraz-resistant mutant Y67^2.41S; format: cell-based; conditions: Table S4
T4 sequence (A0ACM8E5E8 1-384 Y67S): T1 sequence (A0ACM8E5E8 1-384 T39P) with P39T, Y67S
Description: as §1, §2, §3

[6] = molecular target: T5, is-octβ2R N87^2.61S mutant (Ixodes scapularis, UniProt A0ACM8E5E8, N87S); test: TGFα shedding assay, amitraz-resistant mutant N87^2.61S; format: cell-based; conditions: Table S4
T5 sequence (A0ACM8E5E8 1-384 N87S): T1 sequence (A0ACM8E5E8 1-384 T39P) with P39T, N87S
Description: as §1, §2, §3

[7] = molecular target: T6, is-octβ2R Y215^5.58H mutant (Ixodes scapularis, UniProt A0ACM8E5E8, Y215H); test: TGFα shedding assay, amitraz-resistant mutant Y215^5.58H; format: cell-based
T6 sequence (A0ACM8E5E8 1-384 Y215H): T1 sequence (A0ACM8E5E8 1-384 T39P) with P39T, Y215H
Description: as §1, §2, §3

[8] = system: is-octβ2R Y215^5.58H mutant; test: as above; format: cell-based, Ixodes scapularis; conditions: versus wild type
Description: as §1, §2, §3

[9] = HEK293, 1 h, Table S2, wild type, AP-TGFα release, HEK293 cells, mean ± SEM, n = 3
[10] = logEC50, Table S2, wild type, HEK293 cells, mean ± SEM, n = 3
[11] = Table S2, wild type, HEK293 cells, mean ± SEM, n = 3

`Cc1ccc(/N=C/N(C)/C=N/c2ccc(C)cc2C)c(C)c1` [Amitraz] was tested. Which Emax ([1]; 1 h, Table S4, WT, AP-TGFα release) did it give?
The Emax was 17 ± 1%.

And the Emax [1, 9]?
Its Emax is 26 ± 0.9%.

What about the EC50 ([1]; LogEC50, Table S4, WT) of the same molecule?
Its EC50 is 31.6 nM.

What about the EC50 [1, 10] of the same molecule?
Its EC50 is 126 nM.

What about the EC50 [2] of the same molecule?
Its EC50 is 31.6 nM.

And the EC50 [3]?
The EC50 was 63.1 nM.

And the EC50 [4]?
The EC50 was 15.8 nM.

And the EC50 [5]?
Its EC50 is 63.1 nM.

What about the EC50 [6] of the same molecule?
The EC50 was 50.1 nM.

And the EC50 [7]?
Its EC50 is 63.1 nM.

What about the “reduction of maximal response (Emax) by the Y215^5.58H mutation” value [8] of the same molecule?
Its value is roughly 50%.

What does the source list for `NC[C@H](O)c1ccc(O)c(O)c1` [Noradrenaline, noradrenaline]?
Emax [1, 9]: 32 ± 13.1%; EC50 [1, 10]: 10000 nM; potency (EC50) relative to the other TDAs ([1]; wild type): significantly weaker affinities

What does the source list for `NCCc1ccc(O)c(O)c1` [Dopamine, dopamine]?
logEC50 [1, 11]: signal observed only at 10-5 M; potency (EC50) relative to the other TDAs ([1]; wild type): significantly weaker affinities; also recorded: lowest potency

What does the source list for `NCCc1ccc(O)cc1` [Tyramine, tyramine]?
EC50 [1]: 1580 nM; Emax ([1]; HEK293, 1 h): 25 ± 1.7%; potency (EC50) relative to the other TDAs ([1]; wild type): weaker potency

`Cc1ccc(N)c(C)c1` [2′,4′-dimethylaniline] was tested. Which agonistic activity ([1]; wild type) did it give?
The agonistic activity was “no agonist activity”.

What does the source list for `Cc1ccc(NC=O)c(C)c1` [DMF, N-(2,4-dimethylphenyl)formamide]?
logEC50 [1, 11]: no activity; agonistic activity ([1]; wild type): no agonistic activity

With `CNC[C@H](O)c1ccc(O)c(O)c1` [Adrenaline, adrenaline] as the molecule, how does the EC50 [1] read?
The EC50 was 3160 nM.

And the Emax ([1]; HEK293, 1 h)?
Its Emax is 20 ± 2.1%.
